Source: US10729643B2, “Methods for administration and methods for treating cardiovascular diseases with resiniferatoxin” (priority 2013, dated 2020)
“Also recorded” adds a separate entry of the source.

How the values were obtained:
[1] = test system: cardiac sympathetic afferent reflex (CSAR); assay: CSAR activation: cardiovascular and sympathetic responses to epicardial capsaicin or bradykinin; assay type: in vivo, rat; conditions: for cardiovascular responses to acute epicardial application of capsaicin and bradykinin: sham rats
Description: In order to desensitize cardiac sympathetic afferents in rats, resiniferatoxin (RTX, 1 mg; Sigma Aldrich) was dissolved in 2 ml of ethanol and mixed with 18 ml of Tween in isotonic saline. RTX (50 μg/ml) was applied twice on the entire left and right ventricles with a swab just prior to coronary ligation. The dose of RTX was determined by preliminary experiments in which we found nearly complete ablation of TRPV1-expressing cardiac nerve endings on the surface of the rat heart for more than 10 weeks. Rat surgery was performed 9-11 weeks post-MI. Rats were anesthetized with urethane (800 mg/kg ip) and α-chloralose (40 mg/kg ip). Renal sympathetic nerve activity (RSNA) and cardiac sympathetic nerve activity (CSNA) were recorded for evaluating basal renal and cardiac sympathetic tone.
In another parallel set of experiments, we further confirmed the efficiency of RTX-induced TRPV1-expressing CSAR afferent ablation functionally by epicardial application of capsaicin and bradykinin (10 μg/ml) in sham+RTX rats treated with various doses (0.5 μg/ml, 5 μg/ml and 50 μg/ml) and at various time points (1 week, 4-6 weeks, 9-11 weeks and 6 months after RTX). […] Therefore, a higher dose greater than 5 μg/ml should be used for epicardial administration.
To determine activation of the CSAR, epicardial application of capsaicin and bradykinin was used to effectively stimulate the cardiac sympathetic afferents (Zahner et al. J. Physiol. 2003; 551:515-523). The time interval between capsaicin and bradykinin was about 15-20 min to allow the arterial pressure (AP), heart rate (HR) and renal sympathetic nerve activity (RSNA) to return to, and stabilize at their control levels.

[2] = test system: myocardium of sham and CHF rats; assay: Cardiac apoptosis: TUNEL staining and cleaved caspase 3; assay type: in vivo, rat
From the text: This example illustrates the effects of RTX on cardiac fibrosis in sham and CHF rats. Considering that RTX-mediated reduction in LVEDP in CHF rats may be related to an improvement in cardiac compliance, we further evaluated cardiac fibrosis using picrosirus red staining and protein expression of two fibrotic markers (a smooth muscle actin and fibronectin) as well as their upstream activator, transforming growth factor (TGF) β receptor I in the non-infarcted LV and inter-ventricular septum (IVS) walls from sham and CHF rats treated with either vehicle or RTX. For histopathology, the rat heart was fixed in 10% phosphate buffered formalin, embedded in paraffin, and cut into 10 μm serial sections from apex to base. Picrosirius red staining was performed to detect myocardial fibrosis. Immunohistochemistry staining of cleaved caspase 3 (CC3) was also performed in paraffin sections from the same heart tissues which were used for picrosirius red staining experiments.
This example illustrates effects of RTX on cardiac apoptosis in sham and CHF rats. Cardiac remodeling includes hypertrophy, fibrosis and apoptosis. Based on the beneficial effects of RTX on cardiac hypertrophy and cardiac fibrosis in CHF rats, we further investigated the effect of RTX on cardiac apoptosis in sham and CHF rats. TUNEL staining was performed. Terminal deoxynucleotidyl transferase dUTP-mediated nick-end labeling (TUNEL) staining and analysis was performed to evaluate the effect of RTX on cardiac apoptosis. Representative photomicrographs are depicted in FIG. 6A.

sham and CHF rats [3] = assay: In vivo left ventricular PV loop analysis
sham and CHF rats [4] = assay: Basal sympathetic tone (RSNA, CSNA, urinary NE) and arterial baroreflex function
[5] = sham and CHF rats, 9-11 weeks after epicardial RTX 50 μg/ml

In the case of `C=C(C)[C@]12C[C@@H](C)[C@@]34O[C@](Cc5ccccc5)(O[C@@H]1[C@@H]3C=C(COC(=O)Cc1ccc(O)c(OC)c1)C[C@]1(O)C(=O)C(C)=C[C@@H]41)O2` [RTX, resiniferatoxin], the “sham rats showing partial recovery of the cardiovascular responses to capsaicin and bradykinin” value ([1]; 10 weeks after epicardial RTX 5 μg/ml, preliminary experiment) is reported as 40%, the “duration for which CSAR was abolished” value ([1]; RTX 50 μg/ml applied to the surface of heart) is reported as 9-11 weeks and the “sensitivity to capsaicin and bradykinin” value ([1]; all rats, 10 weeks after epicardial RTX 50 μg/ml) is reported as “still insensitive”. The “cardiovascular responses to capsaicin and bradykinin / CSAR sensitivity at 6 months after RTX” value ([1]; epicardial RTX 50 μg/ml, 6 months) was “recovery of CSAR sensitivity; also recorded: largely recovered”, the “duration for which cardiovascular responses to capsaicin and bradykinin were abolished” value ([1]; epicardial RTX 50 μg/ml, time course experiments) was “more than 10 weeks” and the “bradykinin-induced CSAR activation” value [1, 5] was “greatly attenuated”. For the same molecule, the “cardiovascular and sympathetic activation (MAP, HR, RSNA) in response to epicardial capsaicin” value [1, 5] was “almost completely abolished”, the “cardiovascular responses to acute epicardial application of capsaicin and bradykinin” value ([1]; 1 week after epicardial RTX 5 μg/ml) was “largely abolished” and the “cardiovascular responses to acute epicardial application of capsaicin and bradykinin” value ([1]; 1 week after epicardial RTX 50 μ/ml) was “largely abolished”. For the same molecule, the TUNEL-positive cells ([2]; LV infarct, LV peri-infarct, LV remote and IVS regions, CHF+RTX vs CHF+vehicle) was “markedly reduced”, the “increased cleaved caspase 3-positive cardiomyocytes” value ([2]; LV peri-infarct, LV remote and IVS regions, CHF rats, immunohistochemistry) was “largely prevented” and the “elevated protein expression of cleaved caspase 3” value ([2]; LV remote and IVS regions, CHF rats) was “prevented”. For the same molecule, the “difference in number of TUNEL-positive cells in the heart” value ([2]; sham+vehicle vs sham+RTX rats) was “no significant difference”, the “basal contractile function (dP/dtmax, PRSW and ESPVR)” value (sham and CHF rats [3]; CHF rats) was “did not have a significant effect” and the LV chamber size (sham and CHF rats [3]; CHF+RTX vs CHF+vehicle) was “reduction”. The “Tau and LVEDP” value (sham and CHF rats [3]; CHF+RTX vs CHF+vehicle) was “reduced”, the dP/dtmin (sham and CHF rats [3]; CHF+RTX vs CHF+vehicle) was “increased” and the “ventricular stiffness as shown by the EDPVR” value (sham and CHF rats [3]; CHF+RTX vs CHF+vehicle) was “reduced stiffness”. The “contractile and relaxation parameters” value (sham and CHF rats [3]; sham rats) was “no effect”, the “average slope and Gainmax of arterial baroreflex control of HR and RSNA” value (sham and CHF rats [4]; CHF rats) was “significantly increased” and the “basal RSNA and CSNA” value (sham and CHF rats [4]; CHF rats) was “lowered”. For the same molecule, the “minimum HR and RSNA of arterial baroreflex control” value (sham and CHF rats [4]; CHF rats) was “decreased”, the “urinary NE excretion” value (sham and CHF rats [4]; CHF+RTX vs vehicle treated rats) was “significantly reduced” and the “average slope, Gainmax, and minimum RSNA or HR of arterial baroreflex control” value (sham and CHF rats [4]; sham rats) was “no significant effects”.
